Values quoted from earlier work, collected in paper PMC8841438 (Clinical and Translational Science, 2021).

Columns and labels:
[1] = target: T1, organic cation transporter 2 (OCT2) (Homo sapiens, UniProt O15244); details: in vitro; cited from earlier work
T1 sequence (O15244 1-555): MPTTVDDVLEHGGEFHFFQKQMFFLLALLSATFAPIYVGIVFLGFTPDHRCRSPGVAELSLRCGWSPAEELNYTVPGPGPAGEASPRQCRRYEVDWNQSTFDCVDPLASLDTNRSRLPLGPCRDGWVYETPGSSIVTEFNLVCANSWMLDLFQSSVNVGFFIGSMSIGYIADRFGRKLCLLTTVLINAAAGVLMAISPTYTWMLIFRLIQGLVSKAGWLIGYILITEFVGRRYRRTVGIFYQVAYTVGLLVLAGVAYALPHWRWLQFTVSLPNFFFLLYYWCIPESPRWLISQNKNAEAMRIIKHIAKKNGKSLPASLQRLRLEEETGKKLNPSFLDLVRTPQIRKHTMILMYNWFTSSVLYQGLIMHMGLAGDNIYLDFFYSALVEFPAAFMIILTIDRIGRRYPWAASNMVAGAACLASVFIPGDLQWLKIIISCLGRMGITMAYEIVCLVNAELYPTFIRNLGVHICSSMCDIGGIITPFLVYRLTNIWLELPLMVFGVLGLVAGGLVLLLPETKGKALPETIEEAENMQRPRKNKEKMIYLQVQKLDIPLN

[2] = cited from earlier work
[3] = system: organic cation transporter 1; details: in vitro; at clinically relevant concentrations; cited from earlier work
bile salt export pump = details: in vitro; at clinically relevant concentrations; cited from earlier work
MATE2K = MATE2K (Homo sapiens, UniProt Q86VL8); details: in vitro; cited from earlier work
MATE2K, sequence (Q86VL8 1-566 isoform Q86VL8-3): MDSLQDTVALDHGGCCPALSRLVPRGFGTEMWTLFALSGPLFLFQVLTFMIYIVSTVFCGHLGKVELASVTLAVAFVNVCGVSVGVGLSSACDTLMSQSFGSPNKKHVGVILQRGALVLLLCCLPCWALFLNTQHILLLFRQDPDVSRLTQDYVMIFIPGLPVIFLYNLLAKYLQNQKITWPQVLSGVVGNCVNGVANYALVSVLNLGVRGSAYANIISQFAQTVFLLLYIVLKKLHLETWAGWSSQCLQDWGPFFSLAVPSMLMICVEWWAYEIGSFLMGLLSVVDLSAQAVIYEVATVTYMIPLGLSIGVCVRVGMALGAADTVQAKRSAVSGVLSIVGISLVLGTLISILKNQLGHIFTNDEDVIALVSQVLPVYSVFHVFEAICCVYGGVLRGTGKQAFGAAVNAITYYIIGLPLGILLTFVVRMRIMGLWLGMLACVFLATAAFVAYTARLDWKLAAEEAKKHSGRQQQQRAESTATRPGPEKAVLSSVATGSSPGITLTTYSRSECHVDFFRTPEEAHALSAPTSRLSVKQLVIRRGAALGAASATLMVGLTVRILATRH

P‐glycoprotein = details: in vitro; cited from earlier work
[4] = system: organic anion transporter 3; details: in vitro; at clinically relevant concentrations; cited from earlier work

## O=C(Nc1nc2cccc(-c3ccc(CN4CCS(=O)(=O)CC4)cc3)n2n1)C1CC1 [Filgotinib]
[1]
  inhibition of OCT2: inhibited
[2]
  accumulation following multiple doses: no accumulation
  time to steady‐state concentrations: ~ 2 days
[2]; from 50 to 200 mg, dose proportional and time‐independent
  linearity of pharmacokinetics: linear
[3]
  inhibition of organic cation transporter 1: not inhibitors
Bile salt export pump
  inhibition of bile salt export pump: not inhibitors
MATE2K
  inhibition of MATE2K: inhibited
P‐glycoprotein
  substrate of P‐glycoprotein: substrates
[4]
  inhibition of organic anion transporter 3: not inhibitors
